Where two headings read alike, the source gives them in different places.
Tests used:
[1] = system: Plasmodium falciparum, Indochina clone W2; assay: microbe, parasite or virus in culture; settings: for IC50: Plasmodium falciparum; for Molar Index: Indochina clone, equimolar activity of 5-fluoroorotate relative to the conventional drug
Experimental: In the antimalarial experiment with parasites, incorporation of radioactivity from [G-^3 H]-hypoxanthine into nucleic acids served as a measure of parasite proliferation. […] Each data point represents an average of two determinations. In the study of toxicity to human cells, proliferation of cells was determined directly by measuring the number of viable cells per well. […] Each data point represents an average of two determinations. 5-fluoro-orotate (.circle-solid.), 5-fluorouracil (.box-solid.), 5-fluorouridine (.tangle-solidup.), and 5-fluoro-2'-deoxyuridine (.diamond-solid.).
(§1) Half shaded symbols represent overlapping data points.
(§2) 3. Effects of pyrimidine analogues alone or in combination with normal pyrimidine bases or nucleosides or with amino acid derivatives can be tested in malaria parasite-infected erythrocytes. Varying concentrations of pyrimidine analogues in culture medium are added to individual wells of microtitre plates [Desjardins, R. E. et al., Antimicrob. […] Parasitemic erythrocytes in culture medium are added to each well. […] As an alternative to adding a radioactive precursor of nucleic acid biosynthesis, the end point for determining the effects of added drugs can be the incorporation of a radioactive amino acid, e.g., [U-^14 C]-isoleucine, into parasite protein.
Fluoropyrimidines, dispersed in 25 μl of culture medium, were added to individual wells of a 96-well microtitre plate. […] Finally, the incorporation of 0.5 μCi of [G-^3 H]hypoxanthine (1 Ci/mmol) into nucleic acids in each well was determined; this served as a measure of parasite proliferation.

[2] = system: HT-1080 human fibrosarcoma cells; assay: Toxicity to cultured HT-1080 cells, number of viable cells; assay type: cell-based; settings: Homo sapiens, HT-1080, 48 h
Experimental: Each data point represents an average of two determinations. […] Each data point represents an average of two determinations.
as §1
Toxicity of pyrimidine analogues to cultured human cells is determined as follows. Mammalian cells are seeded into culture plate wells, and growth medium is added. The following day, fresh culture medium containing the appropriate pyrimidine analogues is added to the wells, and the plates incubated for a period of time and at a temperature appropriate to the cell line and the experimental requirements. Thereafter, the number of cells in each well is determined. […] Cells that grow in suspension (e.g., HL-60 and L-1210 cells) are transferred to centrifuge tubes, pelleted at low speed, washed, and the viability determined as above.
HT-1080 cells were seeded into 6-well culture plates at a density of 50,000 cells per 9.6 cm^2 well. Each well contained 2.5 ml of growth medium. […] After 1 minute, the detached cells were suspended in 1.0 ml of EMEM and collected by centrifugation at 300×g for 3 minutes. […] The concentrations of viable cells were determined in a hemocytometer.

[3] = system: Plasmodium falciparum, Sierra Leone clone D6; assay: Inhibition of P. falciparum proliferation, [G-3H]-hypoxanthine incorporation, Sierra Leone clone D6 (chloroquine-sensitive); assay type: cell-based; settings: Sierra Leone clone; for IC50: Plasmodium falciparum, D6, Table 1, mean ± S.D. of five independent drug response curves; for Molar Index: equimolar activity of 5-fluoroorotate relative to the conventional drug
Experimental: as §2
Fluoropyrimidines, dispersed in 25 μl of culture medium, were added to individual wells of a 96-well microtitre plate. […] Finally, the incorporation of 0.5 μCi of [G-^3 H]hypoxanthine (1 Ci/mmol) into nucleic acids in each well was determined; this served as a measure of parasite proliferation. […] In a second method, the increase in parasitemia was determined directly by smearing infected erythrocytes on microscope slides, staining with Giemsa stain, and determining the ratio of infected to non-infected erythrocytes. In a third method, parasite-infected erythrocytes were incubated with [U-^14 C]-isoleucine (0.5 μCi; 0.33 Ci/mmol), and the amount of radioactivity incorporated into precipitable proteins determined.

[4] = cited from earlier work
[5] = system: P. yoelii; assay: Anti-malarial activity in P. yoelii-infected mice; assay type: in vivo, P. yoelii in Swiss white mice; settings: experiment 2 control, 800 mg/kg uridine alone
Experimental: FIG. 4 illustrates the effect of 5-fluoro-orotate treatment on blood parasitemia. Mice infected with P. yoelii on day 0 in experiments 1 and 2 were treated with (A) 0.2 mg/kg 5-fluoro-orotate, (B) 1 mg/kg, or (C) 5 mg/kg every 4 hours for three days. Control mice (.largecircle., .circle-solid., respectively), received no drug. Open symbols represent treatment without uridine (experiment 1: .smallcircle., .quadrature., .diamond., Δ), and filled symbols represent animals also treated with uridine (experiment 2: .circle-solid., .box-solid., .diamond-solid., .tangle-solidup.). Animals were treated with 5-fluoro-orotate on days 3 to 6. Animals were also treated with uridine in experiment 2 on days 3 to 9.
FIG. 5 illustrates the survival rate of mice infected with P. yoelii and treated with 5-fluoro-orotate, alone or in combination with uridine. Mice were treated with (A) 0.2 mg/kg 5-fluoro-orotate, (B) 1 mg/kg, or (C) 5 mg/kg. Control mice received no 5-fluoro-orotate (.largecircle., .circle-solid., respectively). Open symbols represent treatment without uridine (experiment 1: .largecircle., .quadrature., .diamond., Δ), and closed symbols represent animals also receiving uridine (experiment 2: .circle-solid., .box-solid., .diamond-solid., .tangle-solidup.).
A second in vivo test system can be used to determine if repeated administration of the pyrimidine analogue would have safe anti-malarial activity. In this test system, groups of animals are infected with malaria parasites. At a time when blood parasitemia is reached, the animals are injected with saline alone (control) or with various concentrations of one or more pyrimidine analogues alone or together with one or more rescuing pyrimidine bases or nucleosides at a single concentration, at intervals, over a period of several days. In order to determine the prophylactic effectiveness of the rescuing pyrimidine base or nucleoside, the animals are pretreated with such a base or nucleoside prior to the administration of the pyrimidine analogue. Anti-malarial activity of the treatments is estimated by determining blood parasitemia on the animals at appropriate times. The safety of the treatments is estimated by monitoring animals for weight loss and diarrhea, as these are early symptoms of pyrimidine analogue toxicity [Houghton, J. A., et al., Cancer Res., 39:2406-13 (1979)].
Swiss white mice (25-30 g) were divided into groups of five. On day 0, each mouse was infected by intraperitoneal injection of 10^5 erythrocytic forms of P. yoelii. Starting on day 3, when the blood parasitemia had reached between 5 and 12%, the mice were injected intraperitoneally every 4 hours for three consecutive days with 200 μl of various formulations. […]

[6] = system: thymidylate synthesis; settings: Heidelberger 1983; cited from earlier work
[7] = text value (FIG. 1B), read-out: IC50

Row | IC50 ([1]; W2, 48 h) [nM] | IC50 ([1]; W2) [nM] | SMILES | Molar Index [3] | Molar Index [1] | other results
1 | 32000 | – | O=c1[nH]c(=O)n([C@@H]2O[C@H](CO)[C@@H](O)[C@H]2O)cc1F [5-fluoro-uridine, reference compound] | – | – | IC50 [2, 7]: 30 nM
2 | – | 25600 ± 7080 | COc1ncnc(NS(=O)(=O)c2ccc(N)cc2)c1OC [Sulfadoxine] | 13.5 | 4344 | IC50 ([3]; read-out: IC50): 76.2 ± 13.2 nM
3 | 100000 | – | O=c1[nH]c(=O)n([C@H]2C[C@H](O)[C@@H](CO)O2)cc1F [5-fluoro-2'-deoxyuridine, reference compound] | – | – | IC50 [2, 7]: 10 nM
4 | – | 111 ± 29 | CCc1nc(N)nc(N)c1-c1ccc(Cl)cc1 [Pyrimethamine] | 0.04 | 19 | IC50 ([3]; read-out: IC50): 0.24 ± 0.16 nM

Further lines, the compound ahead of its results:

Row | SMILES | IC50 ([1]; W2, 48 h) [nM] | IC50 ([1]; W2) [nM] | Molar Index [3] | Molar Index [1] | other results
5 | O=c1[nH]cc(F)c(=O)[nH]1 [5-fluoro-uracil, reference compound] | 12000 | – | – | – | IC50 ([2]; read-out: IC50 (50% inhibition)): 2000 nM
6 | CCN(CC)CCCC(C)Nc1ccnc2cc(Cl)ccc12 (stereo not shown) [Chloroquine] | – | 127 ± 23 | 1.6 | 21 | IC50 [3]: 9 ± 1.7 nM; tolerability, oral ([4]; oral): typically is well-tolerated; safety, parenteral ([4]; parenteral, children): may cause cardiac arrhythmia and sudden death in children
7 | O=c1ccn([C@@H]2O[C@H](CO)[C@@H](O)[C@H]2O)c(=O)[nH]1 [uridine, reference compound] | – | – | – | – | mortality, uridine alone [5]: all succumbed to P. yoelii
8 | O=c1[nH]c(=O)n([C@H]2C[C@H](O)[C@@H](COP(=O)(O)O)O2)cc1F [5-fluoro-2'-deoxy-uridylate] | – | – | – | – | inhibition of thymidylate synthesis [6]: potent enzyme-activated inhibitor of thymidylate synthesis
